# From ChEMBL document CHEMBL5537115, “New broad-spectrum and potent antibacterial agents with dual-targeting mechanism: Promoting FtsZ polymerization and disrupting bacterial membranes” (Eur J Med Chem, 2024)
# Activity calls are given as the source filed them. No cut-off for these calls is given here.
# How the values were obtained:
# Staphylococcus aureus [1] = assay: Inhibition of biofilm formation of Staphylococcus aureus ATCC25923 incubated for 20 hrs by crystal violet staining based analysis; assay type: functional, organism-based
# Enterococcus faecalis [2] = assay: Antibacterial activity against vancomycin-susceptible Enterococcus faecalis ATCC29212 assessed as bacterial growth inhibition incubated for 20 hrs by CLSI based broth microdilution method; assay type: functional
# Bacillus subtilis [3] = assay: Antibacterial activity against penicillin-susceptible Bacillus subtilis ATCC9372 assessed as bacterial growth inhibition incubated for 20 hrs by CLSI based broth microdilution method; assay type: functional
# Streptococcus pyogenes [4] = assay: Antibacterial activity against erythromycin-resistant Streptococcus pyogenes 2 clinical isolate assessed as bacterial growth inhibition incubated for 20 hrs by CLSI based broth microdilution method; assay type: functional
# Bacillus subtilis [5] = assay: Selectivity ratio of MBC for penicillin-susceptible Bacillus subtilis ATCC9372 to MIC for penicillin-susceptible Bacillus subtilis ATCC9372; assay type: functional
# Staphylococcus aureus [6] = assay: Disruption of inner membrane in Staphylococcus aureus ATCC25923 by PI staining based analysis; assay type: functional, organism-based; details: time 12.0 min, TDE = time-dependent effect
# Escherichia coli [7] = assay: Antibacterial activity against penicillin-susceptible Escherichia coli ATCC25922 assessed as bacterial growth inhibition incubated for 20 hrs by CLSI based broth microdilution method; assay type: functional
# Acinetobacter baumannii [8] = assay: Selectivity ratio of MBC for Acinetobacter baumannii ATCC19606 to MIC for Acinetobacter baumannii ATCC19606; assay type: functional
# Enterococcus faecium [9] = assay: Antibacterial activity against vancomycin-susceptible Enterococcus faecium ATCC19434 assessed as bacterial growth inhibition incubated for 20 hrs by CLSI based broth microdilution method; assay type: functional
# Staphylococcus aureus [10] = assay: Selectivity ratio of MBC for Staphylococcus aureus clinical isolate to MIC for Staphylococcus aureus clinical isolate; assay type: functional
# Staphylococcus aureus [11] = assay: Antibacterial activity against methicillin-resistant Staphylococcus aureus ATCC43300 incubated for 18 to 20 hrs; assay type: functional; details: time 18-20 hrs
# Staphylococcus aureus [12] = assay: Antibacterial activity against penicillin-resistant Staphylococcus aureus ATCC31007 assessed as bacterial growth inhibition incubated for 20 hrs by CLSI based broth microdilution method; assay type: functional
# Staphylococcus aureus [13] = assay: Antibacterial activity against Staphylococcus aureus clinical isolate assessed as bacterial growth inhibition incubated for 20 hrs by CLSI based broth microdilution method; assay type: functional
# [14] = system: Staphylococcus epidermidis; assay: Antibacterial activity against penicillin-resistant Staphylococcus epidermidis clinical isolate assessed as bacterial growth inhibition incubated for 20 hrs by CLSI based broth microdilution method; assay type: functional
# Staphylococcus aureus [15] = assay: Induction of membrane potential depolarization in Staphylococcus aureus ATCC25923 measured after 20 mins by diSC35 dye based spectroscopy; assay type: functional, organism-based
# Staphylococcus aureus [16] = assay: Induction of resistance development in Staphylococcus aureus ATCC25923 assessed as fold increase in MIC at 0.5 times MIC measured after 32 days by multi-passage resistance assay relative to control; assay type: functional; details: time 32.0 day
# Staphylococcus aureus [17] = assay: Antibacterial activity against Staphylococcus aureus clinical isolate incubated for 18 to 24 hrs; assay type: functional; details: time 18-24 hrs
# Streptococcus pyogenes [18] = assay: Antibacterial activity against erythromycin-susceptible Streptococcus pyogenes 1 assessed as bacterial growth inhibition incubated for 20 hrs by CLSI based broth microdilution method; assay type: functional
# Staphylococcus aureus [19] = assay: Antibacterial activity against methicillin-resistant Staphylococcus aureus ATCC43300 assessed as bacterial growth inhibition incubated for 20 hrs by CLSI based broth microdilution method; assay type: functional
# Escherichia coli [20] = assay: Antibacterial activity against wild-type Escherichia coli BW25113 assessed as bacterial growth inhibition incubated for 20 hrs by CLSI based broth microdilution method; assay type: functional
# Acinetobacter baumannii [21] = assay: Antibacterial activity against Acinetobacter baumannii ATCC19606 assessed as bacterial growth inhibition incubated for 20 hrs by CLSI based broth microdilution method; assay type: functional
# [22] = Hemolytic activity in mouse erythrocytes at 128 ug/ml incubated for 1 hr by absorbance based assay; assay type: toxicity, cell-based, Erythrocyte; details: dose 128 µg/ml, read-out: Activity
# Staphylococcus aureus [23] = assay: Antibacterial activity against erythromycin-susceptible Staphylococcus aureus ATCC25923 incubated for 18 to 24 hrs; assay type: functional; details: time 18-24 hrs
# Enterococcus faecium [24] = assay: Antibacterial activity against vancomycin-resistant Enterococcus faecium ATCC51559 assessed as bacterial growth inhibition incubated for 20 hrs by CLSI based broth microdilution method; assay type: functional
# Staphylococcus aureus [25] = assay: Selectivity ratio of MBC for erythromycin-susceptible Staphylococcus aureus ATCC25923 to MIC for erythromycin-susceptible Staphylococcus aureus ATCC25923; assay type: functional
# Klebsiella pneumoniae = assay: Antibacterial activity against Klebsiella pneumoniae ATCC BAA-1902 assessed as bacterial growth inhibition incubated for 20 hrs by CLSI based broth microdilution method; assay type: functional
# Enterococcus faecalis [26] = assay: Antibacterial activity against vancomycin-resistant Enterococcus faecalis ATCC51299 assessed as bacterial growth inhibition incubated for 20 hrs by CLSI based broth microdilution method; assay type: functional
# [27] = molecular target: T1, Cell division protein FtsZ (Bacillus subtilis) (UniProt A5Z1V5); assay: Induction of FtsZ polymerization in Bacillus subtilis assessed as bundling of FtsZ protofilaments at 10 ug/ml preincubated for 15 mins followed by GTP addition measured after 10 mins by TEM analysis; details: dose 10.0 µg/ml, time 25.0 min
# T1 sequence (whole entry): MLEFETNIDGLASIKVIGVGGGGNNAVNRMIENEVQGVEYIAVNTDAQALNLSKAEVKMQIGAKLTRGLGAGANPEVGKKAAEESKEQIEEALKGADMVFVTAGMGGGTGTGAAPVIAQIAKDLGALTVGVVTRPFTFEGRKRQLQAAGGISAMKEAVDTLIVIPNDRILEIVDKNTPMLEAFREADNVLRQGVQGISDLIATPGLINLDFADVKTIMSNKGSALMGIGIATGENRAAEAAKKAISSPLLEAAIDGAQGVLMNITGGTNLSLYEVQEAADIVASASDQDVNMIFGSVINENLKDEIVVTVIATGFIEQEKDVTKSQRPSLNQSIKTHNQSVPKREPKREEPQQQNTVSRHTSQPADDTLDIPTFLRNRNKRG
# Staphylococcus aureus [28] = assay: Inhibition of biofilm formation of Staphylococcus aureus ATCC25923 at 0.5 ug/ml incubated for 20 hrs by crystal violet staining based analysis relative to control; assay type: functional
# Staphylococcus aureus [29] = assay: Induction of morphological change in Staphylococcus aureus ATCC25923 assessed as loss of bacterial membrane integrity at 16 times MIC incubated for 2 hrs by TEM analysis; assay type: functional, organism-based
# Bacillus subtilis [30] = assay: Induction of morphological change in Bacillus subtilis ATCC9372 assessed as increase in cell length at 0.5 times MIC by phase contrast microscopy; assay type: functional, organism-based
# Staphylococcus aureus [31] = assay: Disruption of inner membrane in Staphylococcus aureus ATCC25923 measured after 12 mins by PI staining based analysis; assay type: functional, organism-based
# [32] = molecular target: T1, Cell division protein FtsZ (Bacillus subtilis); assay: Induction of FtsZ polymerization in Bacillus subtilis at 2.5 to 10 ug/ml preincubated with compound followed by GTP addition by absorbance based assay; details: dose 2.5-10 µg/ml, time 40.0 min, TDE = time-dependent effect
# Staphylococcus aureus [33] = assay: Antibacterial activity against erythromycin-susceptible Staphylococcus aureus ATCC25923 assessed as bacterial growth inhibition incubated for 20 hrs by CLSI based broth microdilution method; assay type: functional
# Bacillus subtilis [34] = assay: Antibacterial activity against penicillin-susceptible Bacillus subtilis ATCC9372 incubated for 18 to 24 hrs; assay type: functional; details: time 18-24 hrs
# Staphylococcus aureus [35] = assay: Induction of morphological change in Staphylococcus aureus ATCC25923 assessed as leakage of cell contents at 16 times MIC incubated for 2 hrs by TEM analysis; assay type: functional, organism-based
# Bacillus pumilus = assay: Antibacterial activity against penicillin-susceptible Bacillus pumilus CMCC63202 assessed as bacterial growth inhibition incubated for 20 hrs by CLSI based broth microdilution method; assay type: functional
# [36] = molecular target: T1, Cell division protein FtsZ (Bacillus subtilis); assay: Induction of FtsZ polymerization in Bacillus subtilis preincubated for 10 mins followed by GTP addition measured upto 30 mins by absorbance based assay; details: dose 2.5-10 µg/ml, time 40.0 min
# Staphylococcus aureus [37] = assay: Selectivity ratio of MBC for methicillin-resistant Staphylococcus aureus ATCC43300 to MIC for methicillin-resistant Staphylococcus aureus ATCC43300; assay type: functional
# Acinetobacter baumannii [38] = assay: Antibacterial activity against Acinetobacter baumannii ATCC19606 incubated for 18 to 24 hrs; assay type: functional; details: time 18-24 hrs
# [39] = Hemolytic activity in mouse erythrocytes at 32 ug/ml incubated for 1 hr by absorbance based assay; assay type: toxicity, cell-based, Erythrocyte; details: at 32 µg/mL, read-out: Activity
# [40] = Hemolytic activity in mouse erythrocytes at 16 ug/ml incubated for 1 hr by absorbance based assay; assay type: toxicity, cell-based, Erythrocyte; details: at 16 µg/mL, read-out: Activity
smiles,measurement,setting,value
Cc1ccccc1-c1c[n+](C)c(-c2ccc(C(C)(C)C)cc2)cc1/C=C/c1ccc(O)cc1.[I-],inhibition,Staphylococcus aureus [1],Dose-Dependent Effect
same,MIC,Enterococcus faecalis [2],2 µg/mL
same,MIC,Bacillus subtilis [3],0.5 µg/mL
same,MIC,Streptococcus pyogenes [4],2 µg/mL
same,Ratio,Bacillus subtilis [5],4
same,Activity,Staphylococcus aureus [6],Tde
same,MIC,Escherichia coli [7],32 µg/mL
same,Ratio,Acinetobacter baumannii [8],4
same,MIC,Enterococcus faecium [9],2 µg/mL
same,Ratio,Staphylococcus aureus [10],8
same,MBC,Staphylococcus aureus [11],2 µg/mL
same,MIC,Staphylococcus aureus [12],1 µg/mL
same,MIC,Staphylococcus aureus [13],0.125 µg/mL
same,MIC,[14],2 µg/mL
same,Activity,Staphylococcus aureus [15],Dose-Dependent Effect
same,fold change (FC),Staphylococcus aureus [16],2
same,MBC,Staphylococcus aureus [17],4 µg/mL
same,MIC,Streptococcus pyogenes [18],1 µg/mL
same,MIC,Staphylococcus aureus [19],0.125 µg/mL
same,MIC,Escherichia coli [20],> 64 µg/mL
same,MIC,Acinetobacter baumannii [21],4 µg/mL
same,"hemolysis at 1 h, 128 ug/ml",[22],7.59%
same,MBC,Staphylococcus aureus [23],2 µg/mL
same,MIC,Enterococcus faecium [24],2 µg/mL
same,Ratio,Staphylococcus aureus [25],32
same,MIC,Klebsiella pneumoniae,> 64 µg/mL
same,MIC,Enterococcus faecalis [26],2 µg/mL
same,Activity,[27],Active
same,inhibition at 0.5 µg/mL,Staphylococcus aureus [28],39%
same,Activity,Staphylococcus aureus [29],Active
same,Activity,Bacillus subtilis [30],Active
same,Activity,Staphylococcus aureus [31],Dose-Dependent Effect
same,Activity,[32],Tde
same,MIC,Staphylococcus aureus [33],0.062 µg/mL
same,MBC,Bacillus subtilis [34],2 µg/mL
same,Activity,Staphylococcus aureus [35],Active
same,MIC,Bacillus pumilus,1 µg/mL
same,Activity,[36],Dose-Dependent Effect
same,Ratio,Staphylococcus aureus [37],16
same,MBC,Acinetobacter baumannii [38],16 µg/mL
C[n+]1cc(-c2ccccc2)c(/C=C/c2ccc(N3CCCC3)cc2)cc1-c1ccc(C(C)(C)C)cc1.[I-],inhibition,Staphylococcus aureus [1],Dose-Dependent Effect
same,MIC,Enterococcus faecalis [2],0.5 µg/mL
same,MIC,Bacillus subtilis [3],0.5 µg/mL
same,MIC,Streptococcus pyogenes [4],1 µg/mL
same,Ratio,Bacillus subtilis [5],1
same,Activity,Staphylococcus aureus [6],Tde
same,MIC,Escherichia coli [7],8 µg/mL
same,Ratio,Acinetobacter baumannii [8],2
same,"hemolysis at 1 h, 32 ug/ml",[39],13.7%
same,MIC,Enterococcus faecium [9],2 µg/mL
same,Ratio,Staphylococcus aureus [10],1
same,MBC,Staphylococcus aureus [11],1 µg/mL
same,MIC,Staphylococcus aureus [12],0.25 µg/mL
same,MIC,Staphylococcus aureus [13],0.5 µg/mL
same,MIC,[14],1 µg/mL
same,Activity,Staphylococcus aureus [15],Dose-Dependent Effect
same,fold change (FC),Staphylococcus aureus [16],2
same,MBC,Staphylococcus aureus [17],0.5 µg/mL
same,MIC,Streptococcus pyogenes [18],0.5 µg/mL
same,MIC,Staphylococcus aureus [19],0.5 µg/mL
same,MIC,Escherichia coli [20],8 µg/mL
same,MIC,Acinetobacter baumannii [21],1 µg/mL
same,MBC,Staphylococcus aureus [23],1 µg/mL
same,MIC,Enterococcus faecium [24],2 µg/mL
same,Ratio,Staphylococcus aureus [25],8
same,MIC,Klebsiella pneumoniae,16 µg/mL
same,MIC,Enterococcus faecalis [26],2 µg/mL
same,Activity,[27],Active
same,inhibition at 0.5 µg/mL,Staphylococcus aureus [28],59.1%
same,Activity,Staphylococcus aureus [29],Active
same,Activity,Bacillus subtilis [30],Active
same,Activity,Staphylococcus aureus [31],Dose-Dependent Effect
same,Activity,[32],Tde
same,MIC,Staphylococcus aureus [33],0.062 µg/mL
same,MBC,Bacillus subtilis [34],0.5 µg/mL
same,Activity,Staphylococcus aureus [35],Active
same,MIC,Bacillus pumilus,0.062 µg/mL
same,Activity,[36],Dose-Dependent Effect
same,"hemolysis at 1 h, 16 ug/ml",[40],4.65%
same,Ratio,Staphylococcus aureus [37],2
same,MBC,Acinetobacter baumannii [38],2 µg/mL
